What is called IC50 is the concentration that gives 50% inhibition.

The record followed here is patent publication US20210332036A1, “PYRIMIDINE AND PYRAZINE HDAC1,2 INHIBITORS” (REGENACY PHARMACEUTICALS, LLC, priority 2018, published 2021).

Series [1] can be described thus: PK parameters, IV dosing (plasma and brain exposure). Type of series: in vivo. Further details: AUC(0-t): concentration or dose not given beside the values. The conditions noted are these: Mouse IV; for Kp: brain/plasma, read-out: Brain AUC/Plasma AUC. The protocol:
[The procedure below names another organism; the source lists this organism under the same test.] Male SD rats were fasted overnight. Compounds of the invention were dissolved in dimethyl acetamide at 10 times the final concentration, then Solutol HS 15 (BASF) was added to a final concentration of 10%. Finally 80% saline was added and vortexed to achieve a clear solution. For the IV dosing three animals were injected via the foot dorsal vein with 1 mg/kg compound. For the PO dosing 5 mg/kg of compound was delivered by oral gavage. Blood was collected via the tail vein into K2EDTA tubes at 5 minutes, 15 minutes, 30 minutes, 1 hour, 2 hours, 4 hours, 8 hours and 24 hours after dosing. The blood was centrifuged at 2000 g for 5 minutes at 4° C. to obtain plasma. The plasma was extracted with acetonitrile and the level of compound was analyzed by LC/MS/MS. The level of compound in plasma was calculated from a standard curve in rat plasma. The IV clearance (L/h/kg) and area under the curve (h*ng/mL) were calculated using WinNonLin software. The dose adjusted area under the curve for the IV and oral dosing were used to calculate the oral bioavailability.
Pharmacokinetic properties were assessed in a rat cassette dosing experiment. The IV clearance (IV Clr.) is in units of L/hr/kg. The oral maximum plasma concentration (PO Cmax) is in units of ng/ml. The oral plasma half-life (PO T1/2) is in units of hours. The oral area under the curve (PO AUC) is in units of hours*ng/ml. The fraction absorbed by the oral route (F %) is a percentage of the oral area under the curve to the IV area under the curve, dose adjusted.

A short description of series [2]: PK parameters, IP dosing (plasma and brain exposure). Format: in vivo. Set-up: AUC(0-t): concentration or dose not given beside the values. The conditions noted are these: Mouse IP; for Kp: brain/plasma, read-out: Brain AUC/Plasma AUC.
Another series has as its target T1, HDAC1 (Homo sapiens, UniProt Q13547).
T1 construct: purchased BPS Biosciences
The experiment in a line: HDAC enzyme assay, HDAC1. Format: biochemical. The conditions noted are these: 16 μM substrate, 10 min preincubation. The protocol:
(§1) Compounds for testing were diluted in DMSO to 50 fold the final concentration and a ten-point three-fold dilution series was made. The compounds were diluted in assay buffer (50 mM HEPES, pH 7.4, 100 mM KCl, 0.001% Tween-20, 0.05% BSA, 20 μM TCEP) to 6-fold their final concentration. The HDAC enzymes (purchased from BPS Biosciences) were diluted to 1.5-fold their final concentration in assay buffer. The tripeptide substrate and trypsin at 0.05 μM final concentration were diluted in assay buffer at 6-fold their final concentration. The final enzyme concentrations used in these assays were 3.3 ng/ml (HDAC1), 0.2 ng/ml (HDAC2) and 0.08 ng/ml (HDAC3). The final substrate concentrations used were 16 μM (HDAC1), 10 μM (HDAC2) and 17 μM (HDAC3).
(§2) Five μl of compounds and 20 μl of enzyme were added to wells of a black, opaque 384 well plate in duplicate. Enzyme and compound were incubated together at room temperature for 10 minutes. Five μl of substrate was added to each well, the plate was shaken for 60 seconds and placed into a Victor 2 microtiter plate reader. The development of fluorescence was monitored for 60 min and the linear rate of the reaction was calculated. The IC50 was determined using Graph Pad Prism by a four parameter curve fit.

For a further series, the target named is T2, HDAC2 (Homo sapiens, UniProt Q92769).
T2 construct: purchased BPS Biosciences
T2 sequence (Q92769 whole entry): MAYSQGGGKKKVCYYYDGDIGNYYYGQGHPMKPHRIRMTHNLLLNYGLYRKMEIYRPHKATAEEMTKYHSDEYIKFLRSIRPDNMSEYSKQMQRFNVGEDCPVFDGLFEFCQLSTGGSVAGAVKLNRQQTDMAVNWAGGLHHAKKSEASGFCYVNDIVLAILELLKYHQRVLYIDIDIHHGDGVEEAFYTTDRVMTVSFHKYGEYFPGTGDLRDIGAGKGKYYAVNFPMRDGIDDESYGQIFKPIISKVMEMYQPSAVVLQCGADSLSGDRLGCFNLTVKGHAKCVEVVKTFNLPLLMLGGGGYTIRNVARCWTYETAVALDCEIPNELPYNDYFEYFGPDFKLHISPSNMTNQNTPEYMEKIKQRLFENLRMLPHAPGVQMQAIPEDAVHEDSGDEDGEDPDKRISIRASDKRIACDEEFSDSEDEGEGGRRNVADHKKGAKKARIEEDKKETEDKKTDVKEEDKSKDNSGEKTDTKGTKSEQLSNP
The experiment in a line: HDAC enzyme assay, HDAC2. Format: biochemical. Particulars: 10 μM substrate, 10 min preincubation. The protocol:
as §1, §2

The target in the next series is T3, HDAC3 (Homo sapiens, UniProt O15379).
T3 construct: purchased BPS Biosciences
T3 sequence (O15379 whole entry): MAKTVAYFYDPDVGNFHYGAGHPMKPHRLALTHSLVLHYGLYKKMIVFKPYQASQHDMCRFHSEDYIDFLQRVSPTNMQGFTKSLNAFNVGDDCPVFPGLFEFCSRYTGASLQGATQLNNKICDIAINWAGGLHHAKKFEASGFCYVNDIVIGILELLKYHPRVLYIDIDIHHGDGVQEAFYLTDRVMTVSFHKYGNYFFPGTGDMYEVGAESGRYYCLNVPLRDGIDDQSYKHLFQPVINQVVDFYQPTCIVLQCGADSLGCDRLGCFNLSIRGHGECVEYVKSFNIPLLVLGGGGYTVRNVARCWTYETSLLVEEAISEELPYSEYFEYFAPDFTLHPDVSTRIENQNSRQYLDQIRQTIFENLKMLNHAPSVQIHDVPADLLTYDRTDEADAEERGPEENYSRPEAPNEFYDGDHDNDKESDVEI
T3 sequence (Q9Y618 395-489 partner limits assumed): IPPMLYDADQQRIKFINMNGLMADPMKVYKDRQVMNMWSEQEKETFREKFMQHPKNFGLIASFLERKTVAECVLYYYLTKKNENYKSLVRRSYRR
The experiment in a line: HDAC enzyme assay, HDAC3. Format: biochemical. Particulars: 17 μM substrate, 10 min preincubation. How it is done: as §1, §2

Setting [3] is: brain, read-out: AUC(last) Brain.
[4] abbreviates: plasma, read-out: AUC(last) Plasma.

T1 sequence (Q13547 whole entry): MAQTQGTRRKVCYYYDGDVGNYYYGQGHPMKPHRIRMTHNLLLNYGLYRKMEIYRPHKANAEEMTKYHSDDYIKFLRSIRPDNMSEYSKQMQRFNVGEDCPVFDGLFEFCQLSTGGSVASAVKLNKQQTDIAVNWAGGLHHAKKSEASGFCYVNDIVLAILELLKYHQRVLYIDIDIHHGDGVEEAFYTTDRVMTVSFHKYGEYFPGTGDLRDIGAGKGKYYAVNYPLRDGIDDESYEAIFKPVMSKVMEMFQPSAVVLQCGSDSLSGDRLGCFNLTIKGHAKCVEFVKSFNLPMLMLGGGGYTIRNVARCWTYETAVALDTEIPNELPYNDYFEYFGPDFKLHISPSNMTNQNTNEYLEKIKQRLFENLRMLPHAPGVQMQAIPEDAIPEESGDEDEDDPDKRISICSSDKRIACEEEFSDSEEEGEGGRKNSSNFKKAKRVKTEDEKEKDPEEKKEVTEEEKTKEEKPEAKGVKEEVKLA

Turning to `Nc1ccc(-c2ccccc2)cc1NC(=O)c1ncc(N2CCNCC2)cn1` [Compound 009], the AUC(0-t) in series [1] (setting [3]) is 300 to 400 ng·h/mL; in series [1] (setting [4]), 300 to 400 ng·h/mL; in series [2] (setting [3]), 200 to 300 ng·h/mL; in series [2] (setting [4]), 1700 to 1800 ng·h/mL. Besides, the results for the Kp in series [1] and in series [2] were 0.8 to 1.5 and 0.1 to 1.5, respectively. In addition, the IC50 against HDAC1 fell in the range of 10 to 20 nM; on HDAC2 it was 70 to 80 nM; against HDAC3, 200 to 210 nM.
As for `CC(=O)N1CCN(c2ccc(C(=O)Nc3cc(-c4cccs4)ccc3N)nc2)CC1` [Compound 010], the AUC(0-t) in series [1] (setting [3]) is 200 to 300 ng·h/mL; in series [1] (setting [4]) it was 500 to 600 ng·h/mL; in series [2] (setting [3]), 200 to 300 ng·h/mL; in series [2] (setting [4]), 2000 to 2100 ng·h/mL. In addition, the Kp in series [1] and in series [2] was 0.1 to 1.5 throughout. In addition, the IC50 on HDAC1 was 1 to 10 nM; on HDAC2, 10 to 20 nM; on HDAC3 it was 120 to 130 nM.
As to `CNS(=O)(=O)Oc1ccc(-c2ccc(N)c(NC(=O)c3ccc(N4CCN(C)CC4)cn3)c2)cc1` [Compound 011], the AUC(0-t) was 100 to 200 ng·h/mL in series [1] (setting [3]), 200 to 300 ng·h/mL in series [1] (setting [4]), under 100 ng·h/mL in series [2] (setting [3]) and 900 to 1000 ng·h/mL in series [2] (setting [4]). Moreover, the Kp in series [1] and in series [2] was 0.1 to 1.5 in each case. Moreover, the IC50 at HDAC1 is 1 to 10 nM; against HDAC2, 10 to 20 nM; on HDAC3, over 2000 nM.
As to `Nc1ccc(-c2cncs2)cc1NC(=O)c1ccc(N2CCNCC2)cn1` [Compound 012], the AUC(0-t) in series [1] (setting [3]) lay in the range of 400 to 500 ng·h/mL; in series [1] (setting [4]), 800 to 900 ng·h/mL; in series [2] (setting [3]), 300 to 400 ng·h/mL; in series [2] (setting [4]) it was 4300 to 4400 ng·h/mL. Moreover, the Kp was in the range of 0.1 to 1.5 in series [1] and 0.01 to 0.1 in series [2]. Also, the IC50 at HDAC1 lay within 1 to 10 nM; at HDAC2, 10 to 20 nM; against HDAC3, 20 to 30 nM.
`Nc1ccc(-c2cccs2)cc1NC(=O)c1ccc(OC[C@H](O)CO)cn1` [Compound 013]: the AUC(0-t) in series [1] (setting [3]) lay in the range of 200 to 300 ng·h/mL; in series [1] (setting [4]) it was 1100 to 1200 ng·h/mL; in series [2] (setting [3]) it was 300 to 400 ng·h/mL; in series [2] (setting [4]), 5900 to 6000 ng·h/mL. Further, the Kp in series [1] is 0.1 to 0.3; in series [2], 0.01 to 0.1. The results for the IC50 on HDAC1, against HDAC2 and against HDAC3 were 1 to 10 nM, 20 to 30 nM and 140 to 150 nM, respectively.
Consider `Nc1ccc(-c2cccs2)cc1NC(=O)c1ccc(NC2CCN(C(=O)N3CCNCC3)CC2)cn1` [Compound 014], for which the AUC(0-t) in series [1] (setting [3]) lay in the range of 100 to 200 ng·h/mL; in series [1] (setting [4]), 1500 to 1600 ng·h/mL; in series [2] (setting [3]), 200 to 300 ng·h/mL; in series [2] (setting [4]) it was 7400 to 7500 ng·h/mL. Also, the figures for the Kp in series [1] and in series [2] were 0.05 to 0.1 and 0.01 to 0.1, respectively. The IC50 at HDAC1 fell in the range of 1 to 10 nM; at HDAC2 it was 10 to 20 nM; against HDAC3, 50 to 60 nM.
As to `Nc1ccc(-c2ccoc2)cc1NC(=O)c1ncc(N2CCNCC2)cn1` [Compound 015], the AUC(0-t) in series [1] (setting [3]) is 100 to 200 ng·h/mL; in series [1] (setting [4]), 500 to 600 ng·h/mL; in series [2] (setting [3]), under 100 ng·h/mL; in series [2] (setting [4]) it was 3200 to 3300 ng·h/mL. Also, the Kp lay within 0.1 to 1.5 in series [1] and 0.01 to 0.1 in series [2]. Besides, the half-maximal inhibitory concentration (IC50) against HDAC1 lay in the range of 10 to 20 nM; against HDAC2, 30 to 40 nM; against HDAC3 it was 110 to 120 nM.
Turning to `Nc1ccc(-c2ccccc2)cc1NC(=O)c1ncc(NCCOCc2cccnc2)cn1` [Compound 016], the AUC(0-t) in series [1] (setting [3]) is under 100 ng·h/mL; in series [1] (setting [4]) it was 300 to 400 ng·h/mL; in series [2] (setting [3]), under 100 ng·h/mL; in series [2] (setting [4]), 900 to 1000 ng·h/mL. The Kp lay in the range of 0.01 to 0.1 in series [1] and 0.001 to 0.01 in series [2]. Moreover, the values for the IC50 at HDAC1, against HDAC2 and at HDAC3 were 1 to 10 nM, 30 to 40 nM and 230 to 240 nM, respectively.
In the case of `Nc1ccc(-c2cccs2)cc1NC(=O)c1cnc(N2CCNCC2)cn1` [Compound 017], the AUC(0-t) in series [1] (setting [3]) is 9000 to 10000 ng·h/mL; in series [1] (setting [4]), 600 to 700 ng·h/mL; in series [2] (setting [3]), 25000 to 25300 ng·h/mL; in series [2] (setting [4]), 2700 to 2800 ng·h/mL. In addition, the IC50 against HDAC1 fell in the range of 1 to 10 nM; against HDAC2, 5 to 15 nM; against HDAC3, 30 to 40 nM.
